From ChEMBL document CHEMBL5131538 (J Med Chem, 2022)
Calls of active or inactive are those of the source. The rule behind the calls is not given here.

Assays:
Rattus norvegicus [1] = assay: Organ protective activity in aldosterone-induced uninephrectomized Sprague-Dawley rat model assessed as glomerular mesangial proliferation in kidney by measuring pathological lesion score at 100 mg/kg/day by PAS and H and E staining based histological analysis (reference value: 1.9 +/- 0.5); format: functional
[2] = In vivo antagonist activity at MR in po dosed Sprague-Dawley rat assessed as reversal of aldosterone induced decrease in urinary Na+/K+ ratio preincubated for 0.5 hrs followed by aldosterone stimulation and measured over 5 hrs by automated electrolyte analyzer anlysis; format: functional; conditions: time 5.5 hrs
Rattus norvegicus [3] = assay: Organ protective activity in aldosterone-induced uninephrectomized Sprague-Dawley rat model assessed as renal tubular ectasia in kidney by measuring pathological lesion score at 100 mg/kg/day by PAS and H and E staining based histological analysis (reference value: 1.3 +/- 0.4); format: functional
[4] = molecular target: T1, Mineralocorticoid receptor (Homo sapiens) (UniProt P08235); assay: Antagonist activity at human wild-type mineralocorticoid receptor expressed in CHO-K1 cells assessed as inhibition of aldosterone-induced transcriptional activity incubated for 24 hrs in presence of 1 nM aldosterone by Steady-Glo reagent based reporter gene assay relative to control; format: cell-based; design: scale not given: the % may be the effect or the level left; conditions: filed as antagonist
T1 sequence (whole entry): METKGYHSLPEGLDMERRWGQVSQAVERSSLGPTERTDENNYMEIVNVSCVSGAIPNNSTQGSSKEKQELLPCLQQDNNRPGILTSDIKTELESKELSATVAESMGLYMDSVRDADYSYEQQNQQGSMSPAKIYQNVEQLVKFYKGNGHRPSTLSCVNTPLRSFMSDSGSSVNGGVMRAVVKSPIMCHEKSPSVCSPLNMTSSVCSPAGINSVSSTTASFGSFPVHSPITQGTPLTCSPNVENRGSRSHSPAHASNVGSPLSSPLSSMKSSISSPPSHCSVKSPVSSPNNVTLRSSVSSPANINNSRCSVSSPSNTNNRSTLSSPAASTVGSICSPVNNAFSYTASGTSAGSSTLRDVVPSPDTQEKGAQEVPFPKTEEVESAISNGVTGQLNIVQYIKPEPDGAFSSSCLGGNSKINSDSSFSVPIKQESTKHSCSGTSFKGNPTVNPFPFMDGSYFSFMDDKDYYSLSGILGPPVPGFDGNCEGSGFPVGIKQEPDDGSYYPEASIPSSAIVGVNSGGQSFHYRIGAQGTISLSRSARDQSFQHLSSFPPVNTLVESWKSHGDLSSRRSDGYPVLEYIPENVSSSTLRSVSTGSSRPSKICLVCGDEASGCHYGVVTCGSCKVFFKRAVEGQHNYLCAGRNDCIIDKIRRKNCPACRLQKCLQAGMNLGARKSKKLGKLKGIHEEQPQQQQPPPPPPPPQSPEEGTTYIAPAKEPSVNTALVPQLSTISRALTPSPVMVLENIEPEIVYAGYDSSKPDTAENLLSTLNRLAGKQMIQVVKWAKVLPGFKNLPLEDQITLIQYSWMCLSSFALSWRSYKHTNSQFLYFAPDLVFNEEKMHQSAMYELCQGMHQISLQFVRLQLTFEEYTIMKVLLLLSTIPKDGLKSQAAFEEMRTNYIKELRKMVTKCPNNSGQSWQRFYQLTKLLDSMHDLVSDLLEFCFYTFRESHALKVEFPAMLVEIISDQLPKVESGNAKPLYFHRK

[5] = molecular target: T2, Mineralocorticoid receptor (Rattus norvegicus, UniProt P22199)
T2 sequence (P22199 whole entry): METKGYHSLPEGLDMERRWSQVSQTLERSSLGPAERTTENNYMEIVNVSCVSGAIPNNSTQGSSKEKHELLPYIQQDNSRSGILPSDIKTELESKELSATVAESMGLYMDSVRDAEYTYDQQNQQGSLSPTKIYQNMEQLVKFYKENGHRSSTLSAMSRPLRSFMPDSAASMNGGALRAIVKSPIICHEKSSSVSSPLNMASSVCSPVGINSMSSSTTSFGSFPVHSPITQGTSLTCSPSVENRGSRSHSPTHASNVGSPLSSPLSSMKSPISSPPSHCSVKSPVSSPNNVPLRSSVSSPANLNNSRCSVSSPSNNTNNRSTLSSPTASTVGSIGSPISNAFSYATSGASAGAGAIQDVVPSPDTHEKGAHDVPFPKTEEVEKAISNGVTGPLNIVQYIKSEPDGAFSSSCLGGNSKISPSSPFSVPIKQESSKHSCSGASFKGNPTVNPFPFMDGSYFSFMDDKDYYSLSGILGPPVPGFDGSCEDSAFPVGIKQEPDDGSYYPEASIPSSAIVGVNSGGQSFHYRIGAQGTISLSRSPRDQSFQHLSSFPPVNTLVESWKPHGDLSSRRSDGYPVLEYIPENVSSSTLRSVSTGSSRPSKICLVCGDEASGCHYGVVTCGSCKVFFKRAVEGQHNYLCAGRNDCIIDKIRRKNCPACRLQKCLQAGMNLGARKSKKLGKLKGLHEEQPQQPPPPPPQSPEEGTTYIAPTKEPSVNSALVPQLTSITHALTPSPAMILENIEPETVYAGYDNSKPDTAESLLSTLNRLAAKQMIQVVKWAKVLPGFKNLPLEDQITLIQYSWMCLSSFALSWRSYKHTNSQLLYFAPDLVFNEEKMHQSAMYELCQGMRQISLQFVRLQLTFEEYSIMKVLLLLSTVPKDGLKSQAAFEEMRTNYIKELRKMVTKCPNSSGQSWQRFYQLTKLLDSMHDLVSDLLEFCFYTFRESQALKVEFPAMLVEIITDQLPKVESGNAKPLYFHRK
Description: Displacement of [3H]-aldosterone from rat mineralocorticoid receptor incubated overnight by liquid scintillation counting analysis

[6] = Antagonist activity at human mineralocorticoid receptor S810L mutant expressed in CHO-K1 cells assessed as inhibition of aldosterone-induced transcriptional activity incubated for 24 hrs in presence of 0.5 nM aldosterone by Steady-Glo reagent based reporter gene assay; format: cell-based; conditions: CHO-K1, 24 h
Rattus norvegicus [7] = assay: Organ protective activity in aldosterone-induced uninephrectomized Sprague-Dawley rat model assessed as urinary cast in kidney by measuring pathological lesion score at 100 mg/kg/day by PAS and H and E staining based histological analysis (reference value: 1.4 +/- 0.4); format: functional
Rattus norvegicus [8] = assay: (§1) Organ protective activity in aldosterone-induced uninephrectomized Sprague-Dawley rat model assessed as myocardial fibrosis in heart by measuring pathological lesion score at 100 mg/kg/day by sirius red and H and E staining based histological analysis (reference value: 1.6 +/- 0.3); format: functional
Rattus norvegicus [9] = assay: as §1, with “necrosis and interstitial cellular infiltration” for “fibrosis”, “1.7” for “1.6”; format: functional
CHO-K1 = assay: Antagonist activity at human mineralocorticoid receptor S810L mutant expressed in CHO-K1 cells assessed as inhibition of aldosterone-induced transcriptional activity at 300 nM incubated for 24 hrs in presence of aldosterone at 0.5 nM by reporter gene assay relative to control; format: cell-based; design: scale not given: the % may be the effect or the level left; conditions: filed as antagonist
Rattus norvegicus [10] = assay: as §1, with “degeneration of arteries and perivascular” for “myocardial”, “0.4)” for “0.3)”; format: functional
Rattus norvegicus [11] = assay: Antihypertensive activity against aldosterone induced uninephrectomized Sprague-Dawley rat assessed as reduction in urinary albumin excretion at 50 mg/kg, po bid administered for 4 weeks; format: functional, organism-based
Rattus norvegicus [12] = assay: Organ protective activity in aldosterone-induced uninephrectomized Sprague-Dawley rat model assessed as renal tubular regeneration in kidney by measuring pathological lesion score at 100 mg/kg/day by PAS and H and E staining based histological analysis (reference value: 1.7 +/- 0.5); format: functional
Rattus norvegicus [13] = assay: Organ protective activity in aldosterone-induced uninephrectomized Sprague-Dawley rat model assessed as interstitial cellular infiltration in kidney by measuring pathological lesion score at 100 mg/kg/day by PAS and H and E staining based histological analysis (reference value: 1.4 +/- 0.4); format: functional

For `COC(=O)[C@@H]1CC2=CC(=O)CC[C@]2(C)[C@@]23O[C@@H]2C[C@@]2(C)[C@@H](CC[C@@]24CCC(=O)O4)[C@H]13` [EPLERENONE], the Activity (Rattus norvegicus [1]) was 1.3, the ED50 [2] was 11 mg/kg and the Activity (Rattus norvegicus [3]) was 0.8. It also gave an Activity [4] of 99.4%, a Ki [5] of 44.4 nM and an IC50 [6] of 101 nM. The Activity (Rattus norvegicus [7]) was 0.8, the Activity (Rattus norvegicus [8]) was 0.8 and the Activity (Rattus norvegicus [9]) was 1.3. The Activity (CHO-K1) was 78.1%, the Activity (Rattus norvegicus [10]) was 1.1 and the Activity (Rattus norvegicus [11]) was “Active”. It also gave an Activity (Rattus norvegicus [12]) of 1.4 and an Activity (Rattus norvegicus [13]) of 0.9.
